# Laboratory results published in ChEMBL document CHEMBL3124782, “MHY884, a newly synthesized tyrosinase inhibitor, suppresses UVB-induced activation of NF-κB signaling pathway through the downregulation of oxidative stress” (Bioorg Med Chem Lett, 2014).
# Calls of active or inactive are those of the source. The calls are words filed in the database; no cut-off is given here.
# Tests used:
# [1] = Antioxidant activity assessed as ROS scavenging activity at 1 to 10 uM by DCFDA assay; assay type: functional
# B16-F10 [2] = assay: Inhibition of oxidative stress in mouse B16F10 cells assessed as SIN-1-induced peroxynitrite generation pretreated for 2 hrs followed by washout before SIN-1 challenge; assay type: functional, cell-based
# Mus musculus [3] = assay: (§1) Antioxidant activity in UVB-irradiated melanin-possessing hairless mouse assessed as inhibition of nuclear translocation of p-p65 NF-kappaB Ser 536 in skin homogenate at 2 to 10 uM treated topically to dorsal skin once a day for 21 days concomitantly irradiated with UV-B on alternate days from day 2 post-treatment by Western blot method; assay type: functional, organism-based
# Mus musculus [4] = assay: as §1, with “effect on GSH/GSSG ratio” for “inhibition of nuclear translocation of p-p65 NF-kappaB Ser 536”, “o-phthalaldehyde assay” for “Western blot method”; assay type: functional, organism-based
# B16-F10 [5] = assay: Inhibition of oxidative stress in mouse B16F10 cells assessed as SIN-1-induced ROS generation pretreated for 2 hrs followed by washout before SIN-1 challenge; assay type: functional, cell-based
# Mus musculus [6] = assay: Antioxidant activity in melanin-possessing hairless mouse assessed as inhibition of UVB-induced peroxynitrite generation in skin homogenate compound treated topically to dorsal skin once a day for 21 days concomitantly irradiated with UV-B on alternate days from day 2 post-treatment by DHR 123 assay; assay type: functional, organism-based
# Mus musculus [7] = assay: as §1, with “AKT-mediated IKKalphabeta phosphorylation at Ser176/180 residues” for “nuclear translocation of p-p65 NF-kappaB Ser 536”; assay type: functional, organism-based
# Mus musculus [8] = assay: Antioxidant activity in melanin-possessing hairless mouse assessed as inhibition of UVB-induced ROS generation in skin homogenate compound treated topically to dorsal skin once a day for 21 days concomitantly irradiated with UV-B on alternate days from day 2 post-treatment by DCFDA assay; assay type: functional, organism-based
# Mus musculus [9] = assay: as §1, with “NF-kappaB-mediated iNOS expression” for “nuclear translocation of p-p65 NF-kappaB Ser 536”; assay type: functional, organism-based
# [10] = Antioxidant activity assessed as peroxynitrite scavenging activity at 1 to 10 uM by DHR 123 assay; assay type: functional
# Mus musculus [11] = assay: as §1, with “NF-kappaB-mediated COX-2 expression” for “nuclear translocation of p-p65 NF-kappaB Ser 536”; assay type: functional, organism-based
# Mus musculus [12] = assay: as §1, with “AKT phosphorylation at Thr 308 and Ser473 residues” for “nuclear translocation of p-p65 NF-kappaB Ser 536”; assay type: functional, organism-based
# Mus musculus [13] = assay: as §1, with “p65” for “nuclear translocation of p-p65”, “phosphorylation at Ser536 residue” for “Ser 536”; assay type: functional, organism-based
SMILES,Activity [1],inhibition (B16-F10 [2]),inhibition (Mus musculus [3]),Activity (Mus musculus [4]),inhibition (B16-F10 [5]),inhibition (Mus musculus [6]),inhibition (Mus musculus [7]),inhibition (Mus musculus [8]),inhibition (Mus musculus [9]),Activity [10],inhibition (Mus musculus [11]),inhibition (Mus musculus [12]),inhibition (Mus musculus [13])
Cc1c(C)c2c(c(C)c1O)CCC(C)(C(=O)O)O2 (stereo not given),Active,,,,,,,,,,,,
COc1cc(C2Nc3cc(Cl)ccc3S2)cc(OC)c1O (stereo not given),Active,Dose-dependent effect,Active,inactive,Dose-dependent effect,Dose-dependent effect,Active,Dose-dependent effect,Active,Active,Active,Active,Active
CC(C)(S)[C@@H](N)C(=O)O,,,,,,,,,,Active,,,
